Assay results reported in patent US8546421B1, “Oncogenic-RAS-signal dependent lethal compounds” (The Trustees of Columbia University in the City of New York, priority 2007, dated 2013).

Tests used:
[1] = tested on: BJ-TERT/LT/ST/RAS^V12 cells; experiment: Counter screening with biologically active compounds; assay type: cell-based, human; conditions: for biologically active compounds that suppress compound-induced cell death: 36 bioactive compounds of Table 1, 24 hours, alamar blue
Experimental: Biologically active compounds listed in Table 1 were dissolved in BJ medium at 10× final concentration and aliquoted into eppendorf tubes. 100 μL of each 10× solution was transferred to column 1 to column 12 or column 13 to column 24 of a single row in a 384-well daughter plate. This plate was designated as ‘10× biologically active plate’. In order to prepare lethal compound solution, Erastin and compounds 3, 6, 27, and 36 were dissolved in BJ medium at a concentration of 100 μg/mL, 400 μg/mL, 400 μg/mL, 100 μg/mL, and 200 μg/mL, respectively. Empty daughter plates were filled with 50 μL BJ media except for columns 5 and 13 where 100 μL of each lethal solution was transferred. After lethal solution transfer, 2-fold dilution series across columns 5 to 12 and columns 13 to 20 was made by transferring 50 μL compound solution to the next column successively (8-point dilution series), with mixing. These five plates were each designated ‘10× lethal plate’. Five assay plates were prepared by seeding 4,000 BJ-TERT/LT/ST/RAS^V12 cells per well in 32 μL of growth media in black, clear bottom 384-well plates. Cells in assay plates were first treated with biologically active compounds by transferring 4 μL from the 10× inhibitor plate. Cells were then treated with each lethal compound in a 2-fold dilution series by transferring 4 μL solution from each 10× lethal plate. […] Percent growth inhibition (% GI) was calculated by the following formula using fluorescence intensity values: % GI=100*(1−(X−N)/([…])) wherein X is the fluorescent intensity value measured at 590 nm for cells treated with biologically active compound and lethal compound; N is the fluorescent intensity value measured at 590 nm for a control containing no cells (i.e. biologically active compound in growth media); and P is the fluorescent intensity value measured at 590 nm for a control containing no lethal compound (i.e., cells treated with biologically active compound). Counter Screening with Iron Chelators

[2] = tested on: BJ-derived cell lines (BJ-TERT/LT/ST/RAS^V12 cells); experiment: Vi-Cell analysis (trypan blue exclusion); assay type: cell-based, human; conditions: 24 hours
Experimental: 200,000 cells were seeded in 6-well plates and treated with the indicated amount of 2-fold dilution series concentration of a candidate compound in 2 mL BJ growth medium. After 24 hours, cells were released with trypsin/EDTA, harvested in 1.1 mL growth medium, and transferred to a Vi-Cell (Beckman Coulter) disposable cup. After, trypan blue staining, 100 images of sample were taken and analysis of the images was carried out automatically by a Vi-Cell cell viability analyzer (Beckman Coulter).

[3] = tested on: A549, Calu-1, PaCa, and HCT116 cells; experiment: Alamar blue assay in KRAS-mutation-harboring cancer cells; assay type: cell-based, human
Experimental: A549, Calu-1, HCT116 and MIA PaCa-2 cell lines have an oncogenic mutation in the KRAS gene. Compounds which tested positive in the oncogenic HRAS primary screen were also tested for their selectivity against oncogenic KRAS which is more commonly mutated in human cancers.

CCRF-CEM = experiment: NCI60 anti-cancer screening; conditions: for GI 100%: Leukemia
RPMI-8226 = experiment: NCI60 anti-cancer screening; conditions: for GI50 / CC50: Homo sapiens; for GI50 / GI 100%: RPMI-8226; for CC50: RPMI-8226, read-out: LC 50%; for GI 100%: Leukemia
SR = experiment: NCI60 anti-cancer screening; conditions: for GI50 / CC50: Homo sapiens; for CC50: read-out: LC 50%; for GI 100%: Leukemia
NCI-H522 = experiment: NCI60 anti-cancer screening; conditions: for GI50 / CC50: Homo sapiens; for GI50 / GI 100%: NCI-H522; for CC50: NCI-H522, read-out: LC 50%; for GI 100%: Non-small cell lung carcinoma
HT29 = experiment: NCI60 anti-cancer screening; conditions: for GI 100%: HT29, Colon Cancer; for GI50 / CC50: Homo sapiens; for GI50: HT-29; for CC50: HT-29, read-out: LC 50%
LOX IMVI = experiment: NCI60 anti-cancer screening; conditions: for GI50 / CC50: Homo sapiens; for CC50: read-out: LC 50%; for GI 100%: Melanoma
M14 = experiment: NCI60 anti-cancer screening; conditions: for GI50 / CC50: Homo sapiens; for GI50 / GI 100%: M14; for CC50: M14, read-out: LC 50%; for GI 100%: Melanoma
SK-MEL-28 = experiment: NCI60 anti-cancer screening; conditions: for GI50 / CC50: Homo sapiens; for GI50 / GI 100%: SK-MEL-28; for CC50: SK-MEL-28, read-out: LC 50%; for GI 100%: Melanoma
OVCAR-4 = experiment: NCI60 anti-cancer screening; conditions: for GI50 / CC50: Homo sapiens; for GI50 / GI 100%: OVCAR-4; for CC50: OVCAR-4, read-out: LC 50%; for GI 100%: Ovarian Cancer
786-0 = experiment: NCI60 anti-cancer screening; conditions: for GI 100% / GI50: 786-0; for GI 100%: Renal Cancer; for GI50 / CC50: Homo sapiens; for CC50: 786-0, read-out: LC 50%
ACHN = experiment: NCI60 anti-cancer screening; conditions: for GI50 / CC50: Homo sapiens; for CC50: read-out: LC 50%; for GI 100%: Renal Cancer
RXF393 = experiment: NCI60 anti-cancer screening; conditions: for GI50 / CC50: Homo sapiens; for GI50: RXF 393; for CC50: RXF 393, read-out: LC 50%; for GI 100%: RXF393, Renal Cancer
DU-145 = experiment: NCI60 anti-cancer screening; conditions: for GI 100% / GI50: DU-145; for GI 100%: Prostate Cancer; for GI50 / CC50: Homo sapiens; for CC50: DU-145, read-out: LC 50%
HS 578T = experiment: NCI60 anti-cancer screening; conditions: for GI 100%: HS 578T, Breast Cancer; for GI50 / CC50: Homo sapiens, Hs-578T; for CC50: read-out: LC 50%
BT-549 = experiment: NCI60 anti-cancer screening; conditions: for GI 100% / GI50: BT-549; for GI 100%: Breast Cancer; for GI50 / CC50: Homo sapiens; for CC50: BT-549, read-out: LC 50%
SNB-75 = experiment: NCI60 anti-cancer screening
UO-31 = experiment: NCI60 anti-cancer screening

CCc1c(O)c2c(c(O)c1O[C@H]1O[C@@H](COC(C)=O)[C@H](OC(C)=O)[C@@H](CC(C)=O)[C@@H]1OC(C)=O)C(=O)C(O[C@@H]1O[C@H](COC(C)=O)[C@@H](OC(C)=O)[C@H](OC(C)=O)[C@H]1OC(C)=O)=C(O[C@@H]1O[C@H](COC(C)=O)[C@@H](OC(C)=O)[C@H](OC(C)=O)[C@H]1OC(C)=O)C2=O [Compound 6]
biologically active compounds that suppress compound-induced cell death [1]: only reduced glutathione (GSH) was able to inhibit | potency and selectivity by trypan blue exclusion (in words) [2]: confirmed the potency and selectivity | activity in KRAS-mutation-harboring cancer cells (in words) [3]: reasonable potency | GI50 (CCRF-CEM; Homo sapiens): 0.115 µM | GI 100% (CCRF-CEM): 0.422 µM | GI50 (RPMI-8226): 2.37 µM | CC50 (RPMI-8226): > 10 µM | GI 100% (RPMI-8226): 6.77 µM | GI50 (SR): 2.65 µM | CC50 (SR): > 10 µM | GI 100% (SR): 8.4 µM | GI50 (NCI-H522): 0.49 µM | CC50 (NCI-H522): 5.12 µM | GI 100% (NCI-H522): 1.79 µM | GI 100% (HT29): >10 µM | GI50 (HT29): 3.32 µM | CC50 (HT29): > 10 µM | GI50 (LOX IMVI): 1.73 µM | CC50 (LOX IMVI): 6.25 µM | GI 100% (LOX IMVI): 3.29 µM | GI50 (M14): 2.07 µM | CC50 (M14): 9.28 µM | GI 100% (M14): 4.38 µM | GI50 (SK-MEL-28): 1.46 µM | CC50 (SK-MEL-28): 6.63 µM | GI 100% (SK-MEL-28): 3.11 µM | GI50 (OVCAR-4): 5.71 µM | CC50 (OVCAR-4): > 10 µM | GI 100% (OVCAR-4): >10 µM | GI 100% (786-0): 5.54 µM | GI50 (786-0): 2.51 µM | CC50 (786-0): > 10 µM | GI50 (ACHN): 8.76 µM | CC50 (ACHN): > 10 µM | GI 100% (ACHN): >10 µM | GI50 (RXF393): 0.652 µM | CC50 (RXF393): 6.6 µM | GI 100% (RXF393): 2.41 µM | GI 100% (DU-145): >10 µM | GI50 (DU-145): 5.28 µM | CC50 (DU-145): > 10 µM | GI 100% (HS 578T): >10 µM | GI50 (HS 578T): 3.31 µM | CC50 (HS 578T): > 10 µM | GI 100% (BT-549): 3.27 µM | GI50 (BT-549): 1.49 µM | CC50 (BT-549): 7.21 µM

C=C1CCC2C(C)(C)CCC[C@]2(C)C1CC/C(C)=C\CC/C(C)=N/NC(N)=S (stereo partly drawn) [Compound 36]
biologically active compounds that suppress compound-induced cell death [1]: iron chelators (L-Mim and DFOM) and a protein synthesis inhibitor (cycloheximide) were effective | effect of MEK1/2 inhibitor (U0126) on compound-induced cell death ([1]; U0126 10 uM): inability of MEK1/2 inhibitors to suppress | potency and selectivity by trypan blue exclusion (in words) [2]: confirmed the growth inhibitory potency and selectivity | activity in KRAS-mutation-harboring cancer cells (in words) [3]: active | GI50 (CCRF-CEM; Homo sapiens): 0.165 µM | CC50 (CCRF-CEM; Homo sapiens, read-out: LC 50%): 5.57 µM | GI 100% (CCRF-CEM): 0.705 µM | GI50 (RPMI-8226): 0.194 µM | CC50 (RPMI-8226): 6.98 µM | GI 100% (RPMI-8226): 0.889 µM | GI50 (SR): 1.32 µM | CC50 (SR): 8.78 µM | GI 100% (SR): 3.4 µM | GI50 (NCI-H522): 0.0829 µM | CC50 (NCI-H522): 1.18 µM | GI 100% (NCI-H522): 0.309 µM | GI 100% (HT29): 1.37 µM | GI50 (HT29): 0.322 µM | CC50 (HT29): 4.1 µM | GI50 (SNB-75; Homo sapiens, SNB-75): 0.372 µM | CC50 (SNB-75; Homo sapiens, SNB-75, read-out: LC 50%): 4.3 µM | GI 100% (SNB-75; SNB-75, CNS Cancer): 1.26 µM | GI50 (LOX IMVI): 0.203 µM | CC50 (LOX IMVI): 1.32 µM | GI 100% (LOX IMVI): 0.478 µM | GI50 (M14): 0.384 µM | CC50 (M14): 4.8 µM | GI 100% (M14): 1.59 µM | GI50 (SK-MEL-28): 0.239 µM | CC50 (SK-MEL-28): 2.07 µM | GI 100% (SK-MEL-28): 0.592 µM | GI50 (OVCAR-4): 0.147 µM | CC50 (OVCAR-4): 1.31 µM | GI 100% (OVCAR-4): 0.405 µM | GI 100% (786-0): 0.907 µM | GI50 (786-0): 0.252 µM | CC50 (786-0): 3.02 µM | GI50 (ACHN): 0.366 µM | CC50 (ACHN): 3.78 µM | GI 100% (ACHN): 1.43 µM | GI50 (RXF393): 0.181 µM | CC50 (RXF393): 2.49 µM | GI 100% (RXF393): 0.485 µM | GI50 (UO-31; Homo sapiens, UO-31): 0.125 µM | CC50 (UO-31; Homo sapiens, UO-31, read-out: LC 50%): 1.47 µM | GI 100% (UO-31; UO-31, Renal Cancer): 0.385 µM | GI 100% (DU-145): 2.35 µM | GI50 (DU-145): 1.14 µM | CC50 (DU-145): 4.84 µM | GI 100% (HS 578T): 2.27 µM | GI50 (HS 578T): 0.42 µM | CC50 (HS 578T): > 10 µM | GI 100% (BT-549): 1.3 µM | GI50 (BT-549): 0.302 µM | CC50 (BT-549): 4.07 µM
